Where two headings read alike, the source gives them in different places.
What was measured:
[1] = tested on: 3D7 strain of Plasmodium falciparum; test: Potency in the 3D7 strain of Plasmodium falciparum (EC50); type: cell-based; conditions: Plasmodium falciparum
[2] = tested on: P. berghei Luciferase sporozoites in HepG2-A16-CD81EGFP cells; test: P. berghei Luciferase liver stage assay; type: cell-based; conditions: Plasmodium berghei, 48 h after infection, bioluminescence, read-out: IC50 against sporozoite infection of liver cells (P. berghei Luciferase)
Experimental: Compounds 66 and 177 were tested for activity against sporozoite infection of liver cells as well the viability of liver schizonts of the murine Plasmodium berghei species transformed with Luciferase by using an assay adapted from S. Swann et al. (2016) High-Throughput Luciferase-Based Assay for the Discovery of Therapeutics That Prevent Malaria. ACS Infectious Diseases 2: 4. 281-293 (2016).
Compounds 66 and 177 were tested for activity against sporozoite infection of liver cells of the murine Plasmodium berghei species transformed with Luciferase by using the following P. berghei Luciferase liver stage assay.
Hepatic human transformed cells (HepG2) pre-treated for 18 hours with either compound 66 or 177 were infected with freshly dissected P. berghei Luciferase sporozoites. After another 48 hours of incubation with the compound, the viability of P. berghei exoerythrocytic forms (EEF) was measured by bioluminescence.
Plasmodium berghei Luciferase sporozoites were obtained by dissection of infected A. stephensi mosquito salivary glands supplied by the New York University Insectary. Dissected salivary glands were homogenized in a glass tissue grinder and filtered twice using Steriflip Vacuum-Driven Filtration System (20 μm pore size, Millipore) and counted using a hemocytometer. The sporozoites were kept on ice until needed. […]

[3] = 3D7, read-out: 3D7 Mean EC50 (μM)

| Structure (SMILES) | EC50 ([1]; 3D7, read-out: 3D7 EC50) [µM] | EC50 [1, 3] [µM] | IC50 [2] [nM] |
| --- | --- | --- | --- |
| O=C(Nc1ccc(F)c(F)c1)c1c2c(nc3ccccc13)CCN(Cc1ccccc1)C2 [Compound 66, 2-Benzyl-N-(3,4-difluorophenyl)-1,2,3,4-tetrahydrobenzo[b][1,6]naphthyridine-10-carboxamide] | 0.0204 | > 3.49 | > 50000 |
| O=C1c2c3c(nc4ccccc24)CCN(Cc2ccccc2)C3N1c1ccc(F)c(F)c1 (centres unmarked) [Compound 177, 3-Benzyl-2-(3,4-difluorophenyl)-2a,3,4,5-tetrahydrobenzo[b]pyrrolo[4,3,2-de][1,6]naphthyridin-1(2H)-one] |  | 0.00328 ± 0.000533 | > 12500 |

— patent US12370183B2, “Compositions and methods for treating malaria” (Rutgers, The State University of New Jersey, priority 2020, dated 2025)
